Assay results reported in PubChem BioAssay (NCI).
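1) Cells in 96-well plates. 2) Compound, 48 h, 5 concentrations. 3) Linear interpolation between surrounding doses. 4) Unreached endpoint = highest concentration. GI50: concentration for 50% inhibition of growth. TGI marks complete inhibition of growth.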

Legend:
Experiment in all cases: DTP human tumour cell line panel, 48 h
[1] = test system: NCI-H23 lung
[2] = test system: NCI-H460 lung
[3] = test system: NCI-H522 lung
[4] = test system: NCI/ADR-RES ovarian
[5] = test system: OVCAR-3 ovarian
[6] = test system: OVCAR-4 ovarian
[7] = test system: OVCAR-5 ovarian
[8] = test system: OVCAR-8 ovarian
[9] = test system: PC-3 prostate
[10] = test system: RPMI-8226 leukemia
[11] = test system: RXF 393 renal
[12] = test system: SF-268 CNS
[13] = test system: SF-295 CNS
[14] = test system: SF-539 CNS
[15] = test system: SK-MEL-2 melanoma
[16] = test system: SK-MEL-28 melanoma
[17] = test system: SK-MEL-5 melanoma
[18] = test system: SK-OV-3 ovarian
[19] = test system: SN12C renal
[20] = test system: SNB-19 CNS
[21] = test system: SNB-75 CNS
[22] = test system: SR leukemia
[23] = test system: SW-620 colon
[24] = test system: T-47D breast
[25] = test system: TK-10 renal
[26] = test system: U251 CNS
[27] = test system: UACC-257 melanoma
[28] = test system: UACC-62 melanoma
[29] = test system: UO-31 renal

CC(=O)OC1Oc2ccccc2-c2oc(=O)c(-c3cc(=O)oc4cc(O)ccc34)cc21 (configuration not stated)
TGI [1]: 25.6 µM
GI50 [2]: 21.5 µM
TGI [2]: 73.7 µM
GI50 [3]: 16.9 µM
TGI [3]: 43 µM
GI50 [4]: 18.1 µM
TGI [4]: 44.6 µM
GI50 [5]: 13.8 µM
TGI [5]: 41.4 µM
GI50 [6]: 25 µM
TGI [6]: > 100 µM
GI50 [7]: 26.6 µM
TGI [7]: 57.2 µM
GI50 [8]: 19.8 µM
TGI [8]: > 100 µM
GI50 [9]: 16.2 µM
TGI [9]: 55.6 µM
GI50 [10]: 13.1 µM
TGI [10]: 44.1 µM
GI50 [11]: 4.5 µM
TGI [11]: 20.6 µM
GI50 [12]: 26.2 µM
TGI [12]: 80.3 µM
GI50 [13]: 8.74 µM
TGI [13]: 25.2 µM
GI50 [14]: 17.4 µM
TGI [14]: 38.2 µM
GI50 [15]: 19.2 µM
TGI [15]: 89 µM
GI50 [16]: 34.5 µM
TGI [16]: > 100 µM
GI50 [17]: 13.2 µM
TGI [17]: 26.5 µM
GI50 [18]: 26.7 µM
TGI [18]: 87.6 µM
GI50 [19]: 30.9 µM
TGI [19]: > 100 µM
GI50 [20]: 26.6 µM
TGI [20]: > 100 µM
GI50 [21]: 22.3 µM
TGI [21]: 72.2 µM
GI50 [22]: 2.65 µM
TGI [22]: 6.5 µM
GI50 [23]: 25.8 µM
TGI [23]: 74.4 µM
GI50 [24]: 12.1 µM
TGI [24]: 48.4 µM
GI50 [25]: 32.6 µM
TGI [25]: > 100 µM
GI50 [26]: 24 µM
TGI [26]: 65.3 µM
GI50 [27]: 23.9 µM
TGI [27]: 79 µM
GI50 [28]: 18.8 µM
TGI [28]: 39 µM
GI50 [29]: 22.2 µM
TGI [29]: 58.9 µM
